The text below walks through data of patent US20120309763A1, “ANTIFUNGAL COMPOSITION INTENDED TO BE APPLIED TO A PERFORATED NAIL” (priority 2009, published 2012).

Data set [1] can be described thus: Diffusion of terbinafine HCl through the layers of the nail, Franz cells (Example 10): dorsal layer. Format: in vitro ADME. The following applies: 5 days. The source says:
This temperature is checked before each withdrawal.

Data set [2] in a line: Diffusion of terbinafine HCl through the layers of the nail, Franz cells (Example 10): intermediate layer.
Procedure: For each formulation, 2 nails (1 with the dorsal layer and 1 without the dorsal layer) are used per donor. The treatment time is 5 days with a new application of each formula every day. The amount of formula deposited daily on the surface of the nail is 10 μl/cm2.
For each donor, the thickness of the nails is measured. Then, for each donor, the nails are prepared in the following manner:
4 nails without dorsal layer: for the nails from this group, the dorsal face is removed using a miniature sander in order to reach the intermediate layer by removing 40% of the initial thickness of the nail,
The Franz type diffusion cells used are placed in a thermostatically-controlled bath in order to obtain a temperature of 32±1° C. at the surface of the nail. The nails are placed in the diffusion cell with the ventral side towards the receiving compartment, phosphate buffer (pH 7.4±0.1) containing 0.1% of Volpo (Oleth-20). During the experiment, the diffusion cells are placed in a thermostatically-controlled bath in order to obtain a temperature of 32±1° C. This temperature is checked before each withdrawal. […]
The samples, receiving liquids and nail extracts are then analysed by MS/MS. […]
The procedures of the study and also the amounts of terbinafine HCl in the various layers of the nail, dorsal and intermediate, were carried out and analysed according to the same protocol as before.

In the case of `CCCCCCCCCCCC[N+](C)(C)CC(=O)[O-]` [amphoteric agent, Lauryl Dimethylaminoacetic Acid Betaine], the “increase of the penetration of terbinafine through the dorsal layer by the presence of the amphoteric agent (×)” value in data set [1] (10% solution with vs without amphoteric agent) is listed as 3. The “factor of reduction of the amount of terbinafine HCl in the nail by the presence of the amphoteric agent” value in data set [1] (Lamisil Spray 1% with vs without amphoteric agent, dorsal layer) amounted to 3; in data set [2] (Lamisil Spray 1% with vs without amphoteric agent, intermediate layer, 5 days), 3.

`CN(C/C=C/C#CC(C)(C)C)Cc1cccc2ccccc12.Cl` [terbinafine HCl, terbinafine hydrochloride, reference compound]: in data set [2] (composition with amphoteric agent), the “factor of better diffusion in the intermediate layer relative to the dorsal layer” value stood at 3.
